How the values were obtained:
[1] = test system: Human umbilical vein endothelial cells; assay: CaI-stimulated ONOO− release in HUVECs (nanosensor); assay type: cell-based; conditions: 1.0 μM drug; for ONOO− levels: CaI stimulation, mean±S.D.; for reduction of ONOO− levels: versus control
From the text: FIG. 1. Schematic diagram of a NO nanosensor placed in close proximity to the surface of a single endothelial cell. The nanosensor measures the levels of NO, O2^−, and ONOO^− from the intact endothelium in real time. The sensors are made by depositing a sensing material on the tip of carbon fiber with a diameter of about 0.5 μm. The fibers are sealed with nonconductive epoxy and electrically connected to wires (gold, copper) with conductive silver epoxy.
(§1) Human umbilical vein endothelial cells were isolated into primary cultures from healthy female donors by Clonetics (San Diego, Calif.) and purchased as proliferating cells. All cell culture donors were healthy, with no pregnancy or prenatal complications. None of the donors took any drugs regularly and all were nonsmokers and consumed regular caloric/content diet. The cultured cells were incubated in 95% air/5% CO2 at 37° C. and passage by an enzymatic (trypsin) procedure. The confluent cells (4 to 5×10^5 cells per 35-mm dish) were placed with minimum essential medium containing 3 mM L-arginine and 0.1 mM (6R)-5,6,7,8-tetrahydrobiopterin (BH4). Before the experiments, the cells (from second or third passage) were rinsed twice with Tyrode-HEPES buffer with 1.8 mM CaCl2. Bucindolol and its enanatiomers were obtained from Arca Discovery (Denver, Colo.).
(§2) The quantification of each analyte (concentration in nmol/L) was performed using a maximum current from amperograms and standard calibration curves. The reproducibility of measurements with nanosensors is relatively high, as previously described (Lvovich and Scheeline, 1997; Malinski and Taha, 1992). […] The sensors were slowly raised 5±2 μm from the surface of a single endothelial cell.
(§3) The HUVEC preparation is stable over the course of these experiments with the cells remaining viable and active responses to NO stimulation in culture for >24 hours. For robust statistical analysis, randomly selected cells were used for each concentration and type of drug used in these analyses.

[2] = test system: Human umbilical vein endothelial cells; assay: CaI-stimulated NO release in HUVECs (electrochemical nanosensor); assay type: cell-based; conditions: 1.0 μM drug, 6 hr pretreatment; for NO release: 1.0 μM CaI stimulation, mean±S.D.; for increase in NO release: versus control
Experimental: as §1
(§4) Measurement of NO was carried out with electrochemical nanosensors (FIG. 1). Their design was based on previously developed and well-characterized chemically modified carbon-fiber technology (Lvovich and Scheeline, 1997; Malinski and Taha, 1992). Each of the nanosensors was constructed by depositing a sensing material on the tip of a carbon fiber (length 4-5 μm, diameter 0.2-0.5 μm). The fibers were sealed with nonconductive epoxy and electrically connected to copper wires with conductive silver epoxy. The inventors used a conductive film of polymeric nickel (II) tetrakis (3-methoxy-4-hydroxyphenyl) porphyrin for the NO-sensor.
The NO nanosensors (diameter 1-2 μm) with a platinum wire (0.1 mm) counter electrode and saturated calomel reference electrode (SCE) were applied. Differential pulse voltammetry (DPV) and amperometry were performed with a computer-based Gamry VFP600 multichannel potentiostat. DPV was used to measure the basal NO concentrations, and amperometry was used to measure changes in NO concentrations from its basal level with time. The DPV current at the peak potential characteristic for NO oxidation (0.65 V) […] was directly proportional to the local concentrations of these compounds in the immediate vicinity of the sensor. Linear calibration curves (current vs. concentration) were constructed for each sensor from 10 nM to 3 μM before and after measurements with aliquots of NO standard solutions, respectively. The detection limit of the sensors was 1.0 nM.
as §2, §3

β1AR Gly carrier = target: T1, β1AR Gly carrier (Homo sapiens, UniProt P08588); assay: Force development in isolated failing human right ventricular trabeculae, β1AR Gly carrier; assay type: cell-based
T1 construct: isolated failing human right ventricular trabeculae; from tissue; host or cells: isolated failing human right ventricular trabeculae, β1AR 389 Gly carrier genotypes
T1 sequence (P08588 whole entry): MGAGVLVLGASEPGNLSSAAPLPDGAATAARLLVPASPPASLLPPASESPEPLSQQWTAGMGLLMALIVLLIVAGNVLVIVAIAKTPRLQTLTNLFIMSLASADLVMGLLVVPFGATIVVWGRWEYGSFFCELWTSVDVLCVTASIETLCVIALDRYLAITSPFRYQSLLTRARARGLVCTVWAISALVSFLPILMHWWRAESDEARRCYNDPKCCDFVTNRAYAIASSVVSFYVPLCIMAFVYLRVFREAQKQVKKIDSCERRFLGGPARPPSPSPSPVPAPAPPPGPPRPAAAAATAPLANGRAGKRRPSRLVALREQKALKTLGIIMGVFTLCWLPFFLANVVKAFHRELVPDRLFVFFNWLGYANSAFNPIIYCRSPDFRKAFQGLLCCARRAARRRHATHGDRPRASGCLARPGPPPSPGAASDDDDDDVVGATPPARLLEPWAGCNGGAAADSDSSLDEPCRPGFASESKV

[3] = cited from earlier work
[4] = test system: Human umbilical vein endothelial cells; assay: CaI-stimulated NO/ONOO− release ratio in HUVECs; assay type: cell-based; conditions: for increase in NO/ONOO− ratio: 1.0 μM drug; for favorable effect on endothelial function as compared to bucindolol racemate: NO and ONOO− release, HUVECs
Experimental: as §1, §4, §2
The most comprehensive measurement of endothelial function is the ratio of NO to
ONOO^− following treatment with these agents. […] The basis for these differences is not understood but may be due to genetic variability in the eNOS protein. Bucindolol racemate (1.0 μM) increased the NO/ONOO^− ratio in white donors (49%), Mexican American donors (23%), and African American donors (38%) as shown in FIGS. 11-13. […] Again, the favorable effects of bucindolol and its enanatiomers were much more apparent at the higher dose (10.0 μM) by at least two fold. The effect at the high concentration was especially evident in higher risks populations (African Americans, Mexican Americans).

β1AR Arg/Arg = target: T2, β1AR Arg/Arg (Homo sapiens, UniProt P08588, G389R); assay: Force development in isolated failing human right ventricular trabeculae, β1AR Arg/Arg; assay type: cell-based
T2 construct: isolated failing human right ventricular trabeculae; from tissue; host or cells: isolated failing human right ventricular trabeculae, β1AR Arg/Arg genotype
T2 sequence (P08588 whole entry G389R): as the sequence (P08588 whole entry) above, with G389R counted along it

β1 389 Gly/Gly receptor = target: T3, β1 389 Gly/Gly receptor (Homo sapiens, UniProt P08588); assay: Competition binding in human LV membranes, β1 389 Gly/Gly; conditions: 83% β1 AR, genotype 389 Gly/Gly
T3 construct: human LV membranes that are 83% β1; AR and genotypically 389 Gly/Gly; from tissue; host or cells: human left ventricular membranes, one patient, genotype 389 Gly/Gly
T3 sequence (P08588 whole entry): as the sequence (P08588 whole entry) above
Experimental: (§5) FIG. 14A, 14B. 14A—Competition curve between S- or R-bucindolol in human LV membranes that are 86% β1. AR and genotypically 389 Arg/Arg. The respective Kis are 0.49 nM and 14.0 nM for the S- and R-isomers. 14B—Competition curve between S- or R-bucindolol in human LV membranes that are 83% β1. AR and genotypically 389 Gly/Gly. The respective Kis are 0.59 nM and 26.3 nM for the S- and R-isomers.
(§6) FIG. 14 gives the binding of S- and R-bucindolol in left ventricular membranes prepared from one patient who had the β1 389 Arg/Arg receptor (FIG. 14A), and another with the Gly/Gly (FIG. 14B) genotype. As can be observed, the S-isomer has much higher affinity, in both genotypes. In addition, the Kis are similar for both the S- (0.5-0.6 nM) and R- (around 14-26 nM) isomers in the Arg/Arg and Gly/Gly preparations. Similar results were obtained in the presence of Gpp(NH)p.

β1 389 Arg/Arg receptor = target: T4, β1 389 Arg/Arg receptor (Homo sapiens, UniProt P08588, G389R); assay: Competition binding in human LV membranes, β1 389 Arg/Arg
T4 construct: left ventricular membranes prepared from one patient who had the β1 389 Arg/Arg receptor; from tissue; host or cells: human left ventricular membranes, one patient, genotype 389 Arg/Arg
T4 sequence (P08588 whole entry G389R): as the sequence (P08588 whole entry) above, with G389R counted along it
Experimental: as §5, §6

[5] = human LV membranes, 86% β1 AR, genotype 389 Arg/Arg
[6] = span over the Arg/Arg and Gly/Gly preparations

Compound	ONOO− levels ([1]; African American donors)	reduction of ONOO− levels ([1]; African American donors)	ONOO− levels ([1]; Mexican American donors)	reduction of ONOO− levels ([1]; Mexican American donors)	ONOO− levels ([1]; non-Hispanic white donors)	reduction of ONOO− levels ([1]; non-Hispanic white donors)	NO release ([2]; African American donors)	increase in NO release ([2]; African American donors)	NO release ([2]; Mexican American donors)	increase in NO release ([2]; Mexican American donors)	NO release ([2]; non-Hispanic white donors)	increase in NO release ([2]; non-Hispanic white donors)	Ki (β1 389 Gly/Gly receptor)	Ki (β1 389 Arg/Arg receptor; [5])	Ki (β1 389 Arg/Arg receptor; [6])	favorable effect on endothelial function as compared to bucindolol racemate [4]	also measured
CC(C)(Cc1c[nH]c2ccccc12)NCC(O)COc1ccccc1C#N (racemic) [bucindolol, 2-(3-(1-(1H-indol-3-yl)-2-methylpropan-2-ylamino)-2-hydroxypropoxy)benzonitrile]	378 ± 30 nM	12%	422 ± 27 nM	14%	244 ± 29 nM	19%	306 ± 25 nM	22%	321 ± 28 nM	5%	475 ± 27 nM	16%	–	–	–	–	functional behaviour at the receptor (force development) (β1AR Gly carrier; in the presence of forskolin): neutral antagonist; functional behaviour at the receptor (force development) (β1AR Gly carrier; low activation states): inverse agonist; hazard ratio for the primary endpoint of all-cause mortality ([3]; advanced heart failure, at premature stop of trial, C.I.s 0.78-1.02): 0.90; mortality versus placebo (in words) ([3]; at early termination of BEST): no significant difference in mortality; reduction of mortality or heart failure hospitalization ([3]; entire BEST cohort, p<0.0001): 19%; increase in NO/ONOO− ratio ([4]; African American donors): 38%; increase in NO/ONOO− ratio ([4]; Mexican American donors): 23%; increase in NO/ONOO− ratio ([4]; white donors): 49%; functional behaviour at the receptor (force development) (β1AR Arg/Arg; high signal transduction, adenylyl cyclase activated by forskolin): inverse agonist; functional behaviour at the receptor (force development) (β1AR Arg/Arg; low levels of signal transduction (low receptor activation)): neutral antagonist
CC(C)(Cc1c[nH]c2ccccc12)NCC(O)COc1ccccc1C#N (single isomer, unassigned) [(R)-bucindolol]	–	–	–	–	–	–	–	–	–	–	–	–	26.3 nM	14 nM	14 to 26 nM	less activity	–
CC(C)(Cc1c[nH]c2ccccc12)NCC(O)COc1ccccc1C#N (single isomer, unassigned) [(S)-bucindolol]	352 ± 26 nM	18%	419 ± 34 nM	15%	240 ± 24 nM	23%	318 ± 16 nM	27%	358 ± 32 nM	17%	553 ± 35 nM	35%	0.59 nM	0.49 nM	0.5 to 0.6 nM	more pronounced	–
CC(C)NCC(O)COc1ccc(CC(N)=O)cc1 (stereo not shown) [atenolol]	–	–	–	–	–	–	–	–	–	–	–	–	–	–	–	–	effect on NO/ONOO− ratio (in words) ([4]; 1.0 and 10.0 μM, three donor groups): failed to produce an effect
